Data from ChEMBL document CHEMBL2046305, “Discovery of selective menaquinone biosynthesis inhibitors against Mycobacterium tuberculosis” (J Med Chem, 2012).
In brackets after ≈: the same amount, converted by molar mass.

Experiments:
[1] = system: Mycobacterium tuberculosis; assay: Antibacterial activity against rifampicin-resistant Mycobacterium tuberculosis H37Rv by microplate alamar blue assay; assay type: functional
[2] = system: Mycobacterium tuberculosis; assay: Antibacterial activity against isoniazid-resistant Mycobacterium tuberculosis H37Rv by microplate alamar blue assay; assay type: functional

| SMILES | MIC [1] [µg/mL] | MIC [2] [µg/mL] |
| --- | --- | --- |
| CO[C@H]1/C=C/O[C@@]2(C)Oc3c(C)c(O)c4c(O)c(c(/C=N/N5CCN(C)CC5)c(O)c4c3C2=O)NC(=O)/C(C)=C\C=C\[C@H](C)[C@H](O)[C@@H](C)[C@@H](O)[C@@H](C)[C@H](OC(C)=O)[C@@H]1C [RIFAMPIN] | > 4 | 0.03 (≈ 0.0365 µM) |
| CCCCCC[C@H](CN1CCC(COc2cccc(/C(=N\OC)c3ccc(Cl)cc3)c2)CC1)OC(N)=O | 1.51 (≈ 2.85 µM) | 1.52 (≈ 2.87 µM) |
| NNC(=O)c1ccncc1 [ISONIAZID] | 0.05 (≈ 0.365 µM) | > 8 |
| CCCCCC[C@H](CN1CCC(COc2cccc(C(=O)c3ccc(Cl)cc3)c2)CC1)OC(N)=O | 2.91 (≈ 5.81 µM) | 2.91 (≈ 5.81 µM) |
